Test results published in patent US11612570B2, “Decreased adhesivity receptor-targeted nanoparticles for Fn14-positive tumors” (UNIVERSITY OF MARYLAND, BALTIMORE, priority 2014, dated 2023).

Experiments:
231-Luc cells = assay: In vitro cytotoxicity (MTS assay); type: cell-based, human
Description: For cytotoxicity assays, 231-Luc cells were cultured in 96-well plates at 5×10^3 cells/well for 24 hours. Culture media was removed and replaced with media containing various treatment groups. […] The culture media was removed after 2 hours of incubation to mimic the clearance mechanism and replaced with fresh culture media. Cell viability was then measured after 24 hours with percent viability calculated as absorbance relative to control wells (cell with culture media). A total of 3 wells were used per treatment per concentration for each experiment.

231-Br-Luc cells = assay: In vitro cytotoxicity (MTS assay) in brain-seeking TNBC cells; type: cell-based, human; conditions: 24 hours' incubation

CC(=O)O[C@H]1C(=O)[C@@]2(C)[C@H]([C@H](OC(=O)c3ccccc3)[C@]3(O)C[C@H](OC(=O)[C@H](O)[C@@H](NC(=O)c4ccccc4)c4ccccc4)C(C)=C1C3(C)C)[C@]1(OC(C)=O)CO[C@@H]1C[C@@H]2O [PTX, Paclitaxel]
effect on cell viability / cytotoxicity (231-Luc cells; 2 hours exposure, then fresh media for 24 hours): only a small effect on cell viability
cytotoxicity (231-Luc cells; 24 hours in culture media): more potent than Abraxane™
cell sensitivity (viability) (231-Br-Luc cells): sensitive to PTX treatment in vitro
